Results taken from patent publication US7332475B2 (priority 2003, dated 2008).

What was measured:
[1] = tested on: BVDV(ATCC VR524); test: Contact of BVDV with catechin (EGCg) before inoculation of MDBK cells, detection of BVDV-derived DNA by RT-PCR; type: cell-based, bovine viral diarrhea virus; conditions: 1 mg/ml catechin (EGCg), incubation 6 days
Protocol: The cells were washed three times with PBS, and 5% FBS-containing MEM was added thereto. Incubation was further conducted at 37° C. for 6 days.
After completion of the incubation, a DNA derived from BVDV in the MDBK cells was detected by RT-PCR to confirm whether or not the cells were infected with the virus.

[2] = tested on: BCV Kakegawa strain; test: Contact of BCV with catechin (EGCg) before inoculation of MDBK cells, TCID50 by cell denaturation effect; type: cell-based, bovine coronavirus; conditions: 1 mg/ml EGCg
Protocol: BCV Kakegawa strain with a 50% tissue culture infectious dose (TCID50) of 1.8×10^8/ml and 1 mg/ml of catechin (EGCg: procured from Pharma Foods International Co., Ltd.) were contacted at 25° C. or 37° C. for 30, 60 or 90 minutes respectively, and a 10-fold dilution series was then produced with MEM.
After the cells were washed three times with PBS, 5% FBS-containing MEM was added in an amount of 500 μl/well, and incubation was conducted for 72 hours. Subsequently, the cells infected with the virus were identified with a cell denaturation effect to measure TCID50.

[3] = tested on: bovine coronavirus (BCV) Kakegawa strain and Mebus strain; conditions: 1, 5, 10, 20 or 30 mmol/l reduced glutathione; MDBK cells; supernatant at 24, 48, 72 and 96 hours; FIGS. 1 and 2
Protocol: Madin Darby Bovin Kidney (MDBK) cells (ATCC CCL-22) was incubated with a 48-well plate such that the cells were 90% confluent, and then washed twice with a phosphate buffered saline (PBS).
Each of bovine coronavirus (BCV) Kakegawa strain (procured from Nippon Zenyaku Kogyo Co., Ltd.) [2.56 to 256 hemagglutinin (HA) titer/25 μl] and Mebus strain (ATCC VR-874) (0.064 and 0.64 HA titers/25 μl) at various concentrations, these strains being diluted with fetal bovine serum (FBS)-free Minimum Essential Medium (MEM) [Science, 122, 501 (1952)], was inoculated in an amount of 200 μl/well, and incubated at 37° C. for 90 minutes while moving a plate at intervals of 15 minutes. After the culture solution was washed three times with PBS, 500 μl/well of 5% FBS-containing MEM containing 1, 5, 10, 20 or 30 mmol/l of reduced glutathione was added thereto, and the mixture was further incubated at 37° C. During the incubation, 100 μl of the supernatant was recovered in 24, 48, 72 and 96 hours to measure a hemagglutinin (HA) titer.
The HA titer was measured by adding 25 μl of PBS containing 0.03% BSA to each well, adding 25 μl of the BCV culture supernatant thereto by multiple dilution, adding 0.8% mouse immobilization red cells thereto and measuring an agglutination reaction of red cells after 3 hours. […]

Row | SMILES | BVDV-derived DNA in MDBK cells by RT-PCR ([1]; contact at 37° C. for 30, 60 or 90 minutes) | BVDV-derived DNA in MDBK cells by RT-PCR ([1]; contact at 37° C. for 90 minutes) | 10^(n) TCID50/ml, EGCg-treated virus ([2]; contact 30 min, temperature cell empty (row between 25° C. and 37° C.), control 8.25) | 10^(n) TCID50/ml, EGCg-treated virus ([2]; contact at 25° C. for 30 min, control 7.25) | 10^(n) TCID50/ml, EGCg-treated virus ([2]; contact at 37° C. for 60 min, control 7.75) | 10^(n) TCID50/ml, EGCg-treated virus ([2]; contact at 37° C. for 90 min, control 6.50) | growth of coronavirus (hemagglutinin (HA) titer of culture supernatant) [3]
1 | O=C(O[C@@H]1Cc2c(O)cc(O)cc2O[C@@H]1c1cc(O)c(O)c(O)c1)c1cc(O)c(O)c(O)c1 [EGCg, epigallocatechin gallate] | became undetected depending on the catechin treatment time | not detected at all | 4.25 10^(n) TCID50/ml | 5.75 10^(n) TCID50/ml | <2.75 10^(n) TCID50/ml | <2.00 10^(n) TCID50/ml | –
2 | N[C@@H](CCC(=O)N[C@@H](CS)C(=O)NCC(=O)O)C(=O)O [reduced glutathione, γ-L-Glu-L-Cys-Gly] | – | – | – | – | – | – | effect of inhibiting growth of coronavirus
